Experiments:
[1] = target: Dihydroorotate dehydrogenase (quinone), mitochondrial (Homo sapiens, UniProt Q02127); assay: Binding affinity to human DHODH
[2] = target: T1, Dihydroorotate dehydrogenase (Plasmodium falciparum, UniProt Q54A96); assay: Binding affinity to Plasmodium falciparum DHODH; details: for Ki: read-out: Ki app
T1 sequence (Q54A96 whole entry): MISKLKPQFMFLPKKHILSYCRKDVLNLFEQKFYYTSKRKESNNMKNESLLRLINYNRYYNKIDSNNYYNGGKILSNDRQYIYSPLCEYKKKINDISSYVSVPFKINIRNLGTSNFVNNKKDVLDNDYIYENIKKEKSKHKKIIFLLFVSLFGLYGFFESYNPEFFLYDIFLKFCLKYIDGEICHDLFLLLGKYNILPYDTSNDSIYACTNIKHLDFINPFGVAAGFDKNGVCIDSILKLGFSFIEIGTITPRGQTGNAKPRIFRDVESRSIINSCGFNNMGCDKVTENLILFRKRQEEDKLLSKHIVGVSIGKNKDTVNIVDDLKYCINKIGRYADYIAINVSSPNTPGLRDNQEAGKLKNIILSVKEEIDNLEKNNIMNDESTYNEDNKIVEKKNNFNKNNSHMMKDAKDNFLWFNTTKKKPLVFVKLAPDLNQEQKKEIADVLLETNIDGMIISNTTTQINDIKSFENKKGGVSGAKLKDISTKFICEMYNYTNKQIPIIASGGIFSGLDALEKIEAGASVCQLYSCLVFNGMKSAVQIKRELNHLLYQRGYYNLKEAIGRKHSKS

Sequence of Dihydroorotate dehydrogenase (quinone), mitochondrial (Q02127 whole entry): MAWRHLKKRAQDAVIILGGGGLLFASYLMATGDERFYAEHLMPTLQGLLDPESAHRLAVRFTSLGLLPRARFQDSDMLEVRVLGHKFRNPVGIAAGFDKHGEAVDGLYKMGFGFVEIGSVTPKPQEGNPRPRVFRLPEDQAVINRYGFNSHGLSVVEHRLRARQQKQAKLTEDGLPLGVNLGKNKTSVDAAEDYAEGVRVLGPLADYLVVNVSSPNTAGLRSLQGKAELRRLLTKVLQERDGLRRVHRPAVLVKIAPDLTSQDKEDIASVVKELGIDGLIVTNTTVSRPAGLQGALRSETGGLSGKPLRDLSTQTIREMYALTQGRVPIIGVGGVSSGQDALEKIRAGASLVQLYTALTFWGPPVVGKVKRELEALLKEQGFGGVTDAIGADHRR

IC50 [1] | IC50 [2] | Ki [2] | Ki [1] | Structure (SMILES)
> 200 µM | 42.6 µM | 4.9 µM | – | CN(C(=O)c1ccc(-c2ccccc2)cc1)c1ccccc1C(=O)O
8.4 µM | 143 µM | 16.4 µM | 1.1 µM | O=C(Nc1ccccc1C(=O)O)c1ccc2cc(Br)ccc2c1
> 200 µM | > 200 µM | – | – | CN(C(=O)c1ccc2ccccc2c1)c1ccccc1C(=O)O
13.8 µM | > 200 µM | – | 1.8 µM | O=C(Nc1ccccc1C(=O)O)c1ccc2ccccc2c1
5 µM | 154 µM | 17.7 µM | 0.7 µM | O=C(Nc1ccccc1C(=O)O)c1ccc(-c2ccccc2)cc1
> 200 µM | 93.4 µM | 10.8 µM | – | CN(C(=O)c1ccc2cc(Br)ccc2c1)c1ccccc1C(=O)O
